# Assay results taken from patent US8101200B2, “Targeted therapeutic agent release devices and methods of making and using the same” (Angiotech BioCoatings, Inc., priority 2000, dated 2012).
# Assay: Elution of paclitaxel from E3 Med Coat coated stents in phosphate buffered saline
# Type: physicochemical
# Details: from E3 Med Coat stents (loading 50-60 μg), over a period of 14 days
# Protocol: Solution E3-PC was coated on stainless steel coronary stents, and dried for 60 minutes at 120° C. This layer was applied twice. Solution E3 —Med Coat was coated over the precoat layers, and dried for 60 minutes at 120° C. Drug loading on the stents in the range of 50-60 μg was achieved by applying the Med Coat three times. The stent samples with three layers of E3—Med Coat were subjected to elution in room temperature phosphate buffered saline for times up to 336 hours, and produced the results set forth in TABLE I.
smiles,measurement,value
CC(=O)O[C@H]1C(=O)[C@@]2(C)[C@H]([C@H](OC(=O)c3ccccc3)[C@]3(O)C[C@H](OC(=O)[C@H](O)[C@@H](NC(=O)c4ccccc4)c4ccccc4)C(C)=C1C3(C)C)[C@]1(OC(C)=O)CO[C@@H]1C[C@@H]2O [paclitaxel],paclitaxel eluted out,approximately 10%
